The values below come from patent EP0225272A1, “1-Methyl-15-alpha-alkyl-androsta-1,4-diene-3,17-diones, process for their preparation and pharmaceutical compositions containing them” (SCHERING AKTIENGESELLSCHAFT, priority 1985, dated 1987).

SMILES strings stand for the structures.

Test [1] has as its target T1, Aromataseaktivität (Rattus norvegicus, UniProt P22443).
T1 construct: Infantile weibliche Ratten reagieren auf PMSG (Pregnant Mare's Serum Gonadotropin)-Behandlung mit einheitlich erhöhter Steroidsynthese; from tissue; host or cells: living infantile female rats (in vivo); serum estradiol measured by radioimmunoassay
T1 sequence (P22443 1-508): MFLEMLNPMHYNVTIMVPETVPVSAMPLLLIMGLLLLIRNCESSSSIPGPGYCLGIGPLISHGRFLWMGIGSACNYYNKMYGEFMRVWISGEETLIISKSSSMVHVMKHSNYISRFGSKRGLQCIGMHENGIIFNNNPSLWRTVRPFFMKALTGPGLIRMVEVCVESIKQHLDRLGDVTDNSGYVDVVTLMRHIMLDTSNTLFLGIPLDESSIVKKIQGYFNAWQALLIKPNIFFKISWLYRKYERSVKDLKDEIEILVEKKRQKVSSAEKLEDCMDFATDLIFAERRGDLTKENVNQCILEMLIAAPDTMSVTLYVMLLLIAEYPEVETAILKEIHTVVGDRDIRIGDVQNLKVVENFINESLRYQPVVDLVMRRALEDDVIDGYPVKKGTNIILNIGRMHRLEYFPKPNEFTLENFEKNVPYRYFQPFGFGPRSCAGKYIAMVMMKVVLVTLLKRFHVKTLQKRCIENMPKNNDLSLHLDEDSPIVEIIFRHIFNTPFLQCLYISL
As to the kind of experiment: PMSG test: serum estradiol in PMSG-pretreated infantile female rats (radioimmunoassay). The test is classed as in vivo, Ratte. Conditions: for Östradiol-Konzentration: peripheral serum, PMSG-pretreated rat, mean ± SD, n=10. As to the method:
Infantile weibliche Ratten reagieren auf PMSG (Pregnant Mare's Serum Gonadotropin)-Behandlung mit einheitlich erhöhter Steroidsynthese. Die Aromataseaktivität kann durch die Beeinflussung der PMSG-stimulierten Ostrogenbildung gemessen werden.
Im sogenannten PMSG-Test werden 21 Tage alte weibliche Ratten alle 2 Tage insgesamt 7 mal mit je 100 I.U. PMSG subkutan vorbehandelt. 1 Stunde vor und 8 Stunden nach der letzten PMSG-Applikation (d12) erhalten die Tiere die Testsubstanz in 0,1 ml Benzylbenzoat/Rizinusöl (1+9) durch subkutane Injektion. Die Kontrolltiere erhalten nur das Vehikel. 24 Stunden nach der letzten PMSG-Applikation werden die Tiere getötet. Im Serum wird Östradiol radioimmunologisch geprüft. Für jede Gruppe von 10 Tieren wird der Mittelwert der Östradiolkonzentration in nMol/1 mit der Standardabweichung errechnet. Die Signifikanzen der Unterschiede zur Kontrollgruppe werden durch die Varianzanalyse geprüft.
Zur Ermittlung der relativen Wirkungsstärke der zu testenden Substanz im Vergleich zu der Standardsubstanz wird die Regressions- und Kovarianzanalyse durchgeführt. Ferner wird die prozentuale Hemmung gegen die PMSG-Kontrolle berechnet.

Test [2] deals with Östruszyklus der Ratte. Nature of the test: Influence of aromatase inhibitors on the estrous cycle of the rat (Allen-Doisy smear technique). The test is classed as in vivo, Ratten (SPF-Wistar). The text has this:
In einem weiteren Test wird der Einfluß von Aromatasehemmern auf den Östruszyklus der Ratte bestimmt.
Die Substanzen, die die Östrogenbiosynthese bzw. die Wirkung von Östrogenen hemmen, führen zu einer Störung des Östruszyklus bei Nagern.
Verwendet werden weibliche Ratten (SPF-Wistar) von ca. 180 g Körpergewicht. Pro Gruppe werden 10 Tiere eingesetzt. Der Zyklus wird mittels der Allen-Doisy-Abstrichtechnik täglich untersucht. Es werden zwei aufeinanderfolgende Zyklen verfolgt. Nur Tiere mit einem regelmäßigen 4-Tage-Zyklus kommen in den Versuch. Am Tage des Metöstrus werden die Tiere einmal mit der Testsubstanz (20 mg/Tier) subcutan behandelt. Die Testsubstanz wird dabei in einer 0.9%igen Kochsalzlösung mit Myrj-53^(R) (0.085%) suspendiert (0,5 ml/Dosis). Die Kontrolltiere werden nicht behandelt. Der Versuch wird beendet. wenn alle behandelten Tiere wieder normale Zyklen aufweisen.

In the case of `C[C@]12CCC(=O)C(O)=C1CC[C@@H]1[C@@H]2CC[C@]2(C)C(=O)CC[C@@H]12` [A, 4-Hydroxy-4-androsten-3,17-dion], in test [1] (lowest dose with inhibition, given 2 x s.c.), the “Dosis, mit der eine Hemmung der Östradiol-Konzentration beobachtet wird” value is reported as 1,0 mg. The Östradiol-Konzentration in test [1] (dose 0,1 mg/Tier 2 x s.c.) is on record as 3,98 ± 1,12 nMol/l; in test [1] (dose 0,3 mg/Tier 2 x s.c.), 3,84 ± 0,84 nMol/l; in test [1] (dose 1,0 mg/Tier 2 x s.c.), 1,94 ± 0,62 nMol/l; in test [1] (dose 3,0 mg/Tier 2 x s.c.), 0,98 ± 0,19 nMol/l.
As to `CC(=O)O[C@@H](C)[C@H]1CC(=O)[C@@]2(C)CC[C@H]3[C@@H](CCC4=CC(=O)C=C(C)[C@@]43C)[C@H]12` [B], the Östradiol-Konzentration in test [1] (dose 0,1 mg/Tier 2 x s.c.) was 2,11 ± 0,39 nMol/l; in test [1] (dose 0,3 mg/Tier 2 x s.c.), 0,62 ± 0,13 nMol/l; in test [1] (dose 1,0 mg/Tier 2 x s.c.) it was 0,54 ± 0,07 nMol/l; in test [1] (dose 3,0 mg/Tier 2 x s.c.), 0,36 ± 0,06 nMol/l.
With `CCCC(=O)OC(C)C1CC(=O)C2(C)CCC3C(CCC4=CC(=O)C=C(C)C43C)C12` (stereo not drawn) [C, 15a-(1S-Butyryloxy-ethyl)-1-methyl-androsta-1.4-dien-3,17-dion], in test [2] (single s.c. 20 mg/Tier, average), the “Dauer der Störung des Zyklus (Durchschnitt)” value is given as roughly 15 Tage. The “Zykluslänge der meisten behandelten Tiere” value in test [2] (single s.c. 20 mg/Tier, untreated animals regular 4-day cycle) is 5-Tage-Zyklus. The “Wirkung auf den Zyklus” value in test [2] (single s.c. treatment 20 mg/Tier at metestrus, effect starts right after treatment) is recorded as “Störung des Zyklus”.
